Type in all cases: cell-based
In test [1] the target is T1, IKZF2 (Homo sapiens (Human), UniProt Q96SW2+Q9UKS7). Put plainly: In vitro IKZF2 FACS Assay in Jurkat cells. The settings on record: 24 hrs; for DC50: half maximal degradation concentration; for Dmax: maximal degradation percentage. The protocol:
In vitro IKZF2 FACS Assay
DC50, A: <1 nM; B: 1-10 nM; C: 10-100 nM; D: 100-1000 nM; E: >1000 nM. Dmax, A: >80%; B: 60-80%; C: 40-60%; D: 20-40%; E: <20%.

For test [2], the target named is T1, IKZF2. Put plainly: In vitro IKZF2 HiBit Assay (HEK293T Flp-in-HiBiT cells). The settings on record: HEK293T Flp-in-HiBiT cells, 6 hrs incubation; for DC50: read-out: IKZF2 HiBit DC50; for Dmax: HEK-293T, read-out: IKZF2 HiBit Dmax (%). The procedure, abridged:
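Remaining tagged Helios was read as lytic HiBiT/LgBiT luminescence normalized to DMSO, yielding binned DC50 and Dmax values. Treatment ran 6 h, with compounds at 11 three-fold doses diluted from 1 mM and 0.1% final DMSO. The cells were HEK293T Flp-in with CRISPR knock-in of HiBiT at the IKZF2 N-terminus.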

The target in a further test is IKZF1 (Homo sapiens (Human), UniProt Q13422+Q96SW2). Put plainly: In vitro IKZF1 HiBit Assay (HEK293T Flp-in-HiBiT-IKZF1 stable cell line). The settings on record: HEK293T Flp-in-HiBiT-IKZF1 stable cell line, 6 hrs incubation; for DC50: read-out: IKZF1 HiBit DC50; for Dmax: HEK-293T, read-out: IKZF1 HiBit Dmax (%). The essentials:
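Degradation was measured as loss of luminescence from the HiBiT-IKZF1 tag after 6 h compound treatment, with 0.1% final DMSO, in stable HEK293T Flp-in cells. Values were normalized to DMSO, giving the 50% degradation concentration and the maximal degradation range.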
(HiBiT is a short tag that completes a luciferase, so light tracks the accessible tagged protein.)

T1 sequence (Q9UKS7 whole entry): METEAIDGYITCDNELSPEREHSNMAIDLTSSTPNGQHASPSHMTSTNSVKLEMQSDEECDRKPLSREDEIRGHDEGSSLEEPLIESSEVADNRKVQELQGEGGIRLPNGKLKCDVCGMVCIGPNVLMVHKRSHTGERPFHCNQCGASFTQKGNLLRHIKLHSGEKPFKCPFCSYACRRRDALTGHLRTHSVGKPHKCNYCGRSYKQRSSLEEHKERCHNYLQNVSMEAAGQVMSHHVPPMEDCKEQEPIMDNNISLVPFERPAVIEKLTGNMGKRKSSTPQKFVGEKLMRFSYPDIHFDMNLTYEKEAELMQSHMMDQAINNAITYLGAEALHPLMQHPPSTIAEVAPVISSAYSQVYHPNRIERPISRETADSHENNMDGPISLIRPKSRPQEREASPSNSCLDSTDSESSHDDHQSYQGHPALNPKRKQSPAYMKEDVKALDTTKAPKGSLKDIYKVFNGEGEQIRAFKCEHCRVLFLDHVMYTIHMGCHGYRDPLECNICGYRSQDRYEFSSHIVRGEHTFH
T1 sequence (Q96SW2 whole entry): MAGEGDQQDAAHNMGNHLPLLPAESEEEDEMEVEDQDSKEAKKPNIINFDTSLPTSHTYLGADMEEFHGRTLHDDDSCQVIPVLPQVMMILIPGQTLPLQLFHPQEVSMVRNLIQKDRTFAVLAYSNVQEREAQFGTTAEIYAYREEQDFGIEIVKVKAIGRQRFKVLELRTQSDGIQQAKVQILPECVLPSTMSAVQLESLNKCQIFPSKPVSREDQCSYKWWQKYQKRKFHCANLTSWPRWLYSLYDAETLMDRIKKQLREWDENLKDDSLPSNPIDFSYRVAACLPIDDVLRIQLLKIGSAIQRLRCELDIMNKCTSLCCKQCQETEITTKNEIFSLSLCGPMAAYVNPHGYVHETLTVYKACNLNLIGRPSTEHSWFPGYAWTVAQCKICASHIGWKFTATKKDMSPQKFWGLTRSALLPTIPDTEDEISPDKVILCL
T1 sequence (Q16531 2-1140 partner): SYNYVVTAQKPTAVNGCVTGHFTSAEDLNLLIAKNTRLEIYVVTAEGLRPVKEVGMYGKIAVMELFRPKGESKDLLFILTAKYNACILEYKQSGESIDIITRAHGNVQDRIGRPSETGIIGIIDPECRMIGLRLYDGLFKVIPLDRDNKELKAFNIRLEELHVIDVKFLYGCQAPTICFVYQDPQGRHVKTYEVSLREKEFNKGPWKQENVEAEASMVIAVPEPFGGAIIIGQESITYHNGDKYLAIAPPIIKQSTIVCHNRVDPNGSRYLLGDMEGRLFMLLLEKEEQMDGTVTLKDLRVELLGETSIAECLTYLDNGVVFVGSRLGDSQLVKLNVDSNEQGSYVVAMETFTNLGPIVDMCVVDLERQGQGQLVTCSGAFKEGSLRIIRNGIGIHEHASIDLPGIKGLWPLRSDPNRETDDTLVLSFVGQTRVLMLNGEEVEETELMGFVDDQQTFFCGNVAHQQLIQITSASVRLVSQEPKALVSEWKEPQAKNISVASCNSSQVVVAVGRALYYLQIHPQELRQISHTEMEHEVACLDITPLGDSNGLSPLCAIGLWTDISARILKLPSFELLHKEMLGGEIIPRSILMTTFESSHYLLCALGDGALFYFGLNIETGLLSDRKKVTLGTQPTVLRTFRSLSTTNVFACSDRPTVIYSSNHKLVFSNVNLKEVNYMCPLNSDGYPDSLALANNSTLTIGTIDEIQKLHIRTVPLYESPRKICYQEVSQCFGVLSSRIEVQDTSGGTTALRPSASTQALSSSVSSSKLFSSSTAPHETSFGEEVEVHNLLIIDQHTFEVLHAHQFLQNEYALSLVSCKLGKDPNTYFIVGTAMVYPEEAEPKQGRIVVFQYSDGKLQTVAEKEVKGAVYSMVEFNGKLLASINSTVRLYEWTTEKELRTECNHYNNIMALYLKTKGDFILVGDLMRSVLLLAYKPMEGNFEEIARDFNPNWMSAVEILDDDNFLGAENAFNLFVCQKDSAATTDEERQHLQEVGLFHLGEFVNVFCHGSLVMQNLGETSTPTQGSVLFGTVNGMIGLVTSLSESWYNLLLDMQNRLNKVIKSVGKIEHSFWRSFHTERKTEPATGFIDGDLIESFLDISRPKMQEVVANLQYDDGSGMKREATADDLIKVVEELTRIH
IKZF1, sequence (Q13422 whole entry): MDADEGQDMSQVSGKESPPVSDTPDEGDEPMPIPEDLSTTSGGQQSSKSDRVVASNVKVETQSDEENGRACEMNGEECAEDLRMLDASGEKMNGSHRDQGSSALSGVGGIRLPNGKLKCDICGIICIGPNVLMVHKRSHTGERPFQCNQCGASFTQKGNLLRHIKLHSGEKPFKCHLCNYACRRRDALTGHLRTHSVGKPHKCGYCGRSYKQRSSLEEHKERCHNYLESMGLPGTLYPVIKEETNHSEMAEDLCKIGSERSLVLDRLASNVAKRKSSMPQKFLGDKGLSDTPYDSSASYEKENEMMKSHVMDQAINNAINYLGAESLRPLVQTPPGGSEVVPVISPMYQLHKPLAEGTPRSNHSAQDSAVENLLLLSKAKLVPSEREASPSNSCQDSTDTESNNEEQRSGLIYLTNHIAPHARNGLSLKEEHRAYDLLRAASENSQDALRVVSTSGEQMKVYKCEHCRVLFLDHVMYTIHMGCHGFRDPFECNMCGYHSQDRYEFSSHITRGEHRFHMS
IKZF1, sequence (Q96SW2 whole entry): as the sequence (Q96SW2 whole entry) above
IKZF1, sequence (Q16531 2-1140 partner): as the sequence (Q16531 2-1140 partner) above

`Cn1cnc2c(CN3CCCC3)cc(-c3ccc4c(c3)CN(C3CCC(=O)NC3=O)C4=O)nc21` (stereo not drawn) [Example 180, 3-(5-(3-methyl-7-(pyrrolidin-1-ylmethyl)-3H-imidazo[4,5-b]pyridin-5-yl)-1-oxoisoindolin-2-yl) piperidine-2,6-dione]: the DC50 was in the range of 10 to 100 nM on IKZF2 [1], 1 to 10 nM on IKZF2 [2] and 1 to 10 nM at IKZF1. The Dmax on IKZF2 [1] is above 80%; at IKZF2 [2] it was above 80%; on IKZF1, 20 to 40%.
As to `Cn1ccc(-n2ccc3c(CN4CCCC4)cc(-c4ccc5c(c4)CN([C@H]4CCC(=O)NC4=O)C5=O)nc32)n1` [Example 265, (S)-3-(5-(1-(1-methyl-1H-pyrazol-3-yl)-4-(pyrrolidin-1-ylmethyl)-1H-pyrrolo[2,3-b]pyridin-6-yl)-1-oxoisoindolin-2-yl) piperidine-2,6-dione], the DC50 was 1 to 10 nM at IKZF2 [1], 1 to 10 nM at IKZF2 [2] and above 10000 nM on IKZF1. For the same compound, the results for the Dmax on IKZF2 [1], at IKZF2 [2] and on IKZF1 were 60 to 80%, above 80% and below 20%, respectively.
Consider `CC(C)Nc1n[nH]c2c(CN3CCC(F)CC3)cc(-c3ccc4c(c3F)CN(C3CCC(=O)NC3=O)C4=O)nc12` (stereo not drawn) [Example 282, 3-(4-fluoro-5-(7-((4-fluoropiperidin-1-yl)methyl)-3-(isopropylamino)-1H-pyrazolo[4,3-b]pyridin-5-yl)-1-oxoisoindolin-2-yl) piperidine-2,6-dione], for which the figures for the DC50 at IKZF2 [1], on IKZF2 [2] and at IKZF1 were 10 to 100 nM, 1 to 10 nM and 1000 to 10000 nM, respectively. In addition, the Dmax on IKZF2 [1] is above 80%; at IKZF2 [2], above 80%; on IKZF1 it was 20 to 40%.
On to `O=C1CCC(N2Cc3cc(-c4nc(CN5CCCC5)c5cc[nH]c5n4)ccc3C2=O)C(=O)N1` (stereo not drawn) [Example 182, 3-(1-oxo-5-(4-(pyrrolidin-1-ylmethyl)-7H-pyrrolo[2,3-d]pyrimidin-2-yl)isoindolin-2-yl) piperidine-2,6-dione], for which the results for the DC50 on IKZF2 [1], on IKZF2 [2] and at IKZF1 were 10 to 100 nM, 1 to 10 nM and above 10000 nM, respectively. The Dmax on IKZF2 [1] is 60 to 80%; on IKZF2 [2], above 80%; on IKZF1, below 20%.
On to `O=C1CCC(N2Cc3c(ccc(-c4cc(CN5CCCC5)c5[nH]nc(NC6CCC6)c5n4)c3F)C2=O)C(=O)N1` (stereo not drawn) [Example 295, 1.3-(5-(3-(cyclobutylamino)-7-(pyrrolidin-1-ylmethyl)-1H-pyrazolo[4,3-b]pyridin-5-yl)-4-fluoro-1-oxoisoindolin-2-yl) piperidine-2,6-dione], for which the figures for the DC50 at IKZF2 [1], at IKZF2 [2] and at IKZF1 were 1 to 10 nM, below 1 nM and 10 to 100 nM, respectively. The Dmax was above 80% at IKZF2 [1], above 80% on IKZF2 [2] and 40 to 60% at IKZF1.
As for `O=C1CCC(N2Cc3cc(-c4cc(CN5CCCC5)c5cnn(C6COC6)c5n4)ccc3C2=O)C(=O)N1` (stereo not drawn) [Example 203, 3-(5-(1-(oxetan-3-yl)-4-(pyrrolidin-1-ylmethyl)-1H-pyrazolo[3,4-b]pyridin-6-yl)-1-oxoisoindolin-2-yl) piperidine-2,6-dione], the DC50 was in the range of 1 to 10 nM on IKZF2 [1], 1 to 10 nM on IKZF2 [2] and 10 to 100 nM on IKZF1. Also, the Dmax on IKZF2 [1] is above 80%; at IKZF2 [2], above 80%; at IKZF1, 20 to 40%.
Regarding `COC1CC(n2ccc3c(CN4CCCC4)cc(-c4ccc5c(c4)CN(C4CCC(=O)NC4=O)C5=O)nc32)C1` (stereo not drawn) [Example 255, 3-(5-(1-(3-methoxycyclobutyl)-4-(pyrrolidin-1-ylmethyl)-1H-pyrrolo[2,3-b]pyridin-6-yl)-1-oxoisoindolin-2-yl) piperidine-2,6-dione], the DC50 on IKZF2 [1] is 1 to 10 nM; on IKZF2 [2], 1 to 10 nM; at IKZF1, 10 to 100 nM. Further, the Dmax on IKZF2 [1] is above 80%; at IKZF2 [2] it was above 80%; on IKZF1, 20 to 40%.
Consider `CN1CC(n2ccc3c(CN4CCCC4)cc(-c4ccc5c(c4F)CN(C4CCC(=O)NC4=O)C5=O)nc32)C1` (stereo not drawn) [Example 260, 3-(4-fluoro-5-(1-(1-methylazetidin-3-yl)-4-(pyrrolidin-1-ylmethyl)-1H-pyrrolo[2,3-b]pyridin-6-yl)-1-oxoisoindolin-2-yl) piperidine-2,6-dione], for which the figures for the DC50 on IKZF2 [1], at IKZF2 [2] and on IKZF1 were 1 to 10 nM, 1 to 10 nM and 10 to 100 nM, respectively. Further, the Dmax at IKZF2 [1] is above 80%; on IKZF2 [2], above 80%; at IKZF1, 60 to 80%.
`O=C1CCC(N2Cc3cc(-c4cc(CN5CCCC5)c5ccn(C6CC(F)(F)C6)c5n4)ccc3C2=O)C(=O)N1` (stereo not drawn) [Example 274, 3-(5-(1-(3,3-difluorocyclobutyl)-4-(pyrrolidin-1-ylmethyl)-1H-pyrrolo[2,3-b]pyridin-6-yl)-1-oxoisoindolin-2-yl) piperidine-2,6-dione]: the figures for the DC50 on IKZF2 [1], at IKZF2 [2] and on IKZF1 were 1 to 10 nM, below 1 nM and 1000 to 10000 nM, respectively. Further, the Dmax on IKZF2 [1] was 60 to 80%; on IKZF2 [2] it was above 80%; at IKZF1, 20 to 40%.
`Cn1ccc2c(CN3CCCC3)c(Cl)c(-c3ccc4c(c3F)CN(C3CCC(=O)NC3=O)C4=O)nc21` (stereo not drawn) [Example 277, 3-(5-(5-chloro-1-methyl-4-(pyrrolidin-1-ylmethyl)-1H-pyrrolo[2,3-b]pyridin-6-yl)-4-fluoro-1-oxoisoindolin-2-yl) piperidine-2,6-dione]: the DC50 is 1 to 10 nM on IKZF2 [1], below 1 nM on IKZF2 [2] and above 10000 nM on IKZF1. Also, the Dmax was above 80% at IKZF2 [1], above 80% at IKZF2 [2] and below 20% on IKZF1.
On to `O=C1CCC(N2Cc3cc(-c4cc(CN5CCCCC56CC6)c5ccn(C6COC6)c5n4)ccc3C2=O)C(=O)N1` (stereo not drawn) [Example 264, 3-(5-(4-((4-azaspiro[2.5]octan-4-yl)methyl)-1-(oxetan-3-yl)-1H-pyrrolo[2,3-b]pyridin-6-yl)-1-oxoisoindolin-2-yl) piperidine-2,6-dione], for which the DC50 on IKZF2 [1] is 10 to 100 nM; on IKZF2 [2], 1 to 10 nM; on IKZF1 it was above 10000 nM. In addition, the Dmax on IKZF2 [1] is 40 to 60%; at IKZF2 [2], 60 to 80%; on IKZF1, below 20%.
Consider `O=C1CCC(N2Cc3cc(-c4cc(CN5CCCC5)c5nccc(OC6CC6)c5n4)ccc3C2=O)C(=O)N1` (stereo not drawn) [Example 242, 3-(5-(8-cyclopropoxy-4-(pyrrolidin-1-ylmethyl)-1,5-naphthyridin-2-yl)-1-oxoisoindolin-2-yl) piperidine-2,6-dione], for which the figures for the DC50 at IKZF2 [1], at IKZF2 [2] and at IKZF1 were 1 to 10 nM, 1 to 10 nM and above 10000 nM, respectively. Also, the values for the Dmax at IKZF2 [1], at IKZF2 [2] and on IKZF1 were above 80%, above 80% and below 20%, respectively.
For the compound `Nc1n[nH]c2c(CN3CCCC3)cc(-c3ccc4c(c3)CN(C3CCC(=O)NC3=O)C4=O)nc12` (stereo not drawn) [Example 151, 3-(5-(3-amino-7-(pyrrolidin-1-ylmethyl)-1H-pyrazolo[4,3-b]pyridin-5-yl)-1-oxoisoindolin-2-yl) piperidine-2,6-dione], the DC50 at IKZF2 [1] was 1 to 10 nM; on IKZF2 [2], 1 to 10 nM; on IKZF1, above 10000 nM. For the same compound, the Dmax on IKZF2 [1] is above 80%; on IKZF2 [2], above 80%; at IKZF1 it was below 20%.
For the compound `CNc1n[nH]c2c(CN3CCCC3)cc(-c3ccc4c(c3)CN(C3CCC(=O)NC3=O)C4=O)nc12` (stereo not drawn) [Example 181, 3-(5-(3-(methylamino)-7-(pyrrolidin-1-ylmethyl)-1H-pyrazolo[4,3-b]pyridin-5-yl)-1-oxoisoindolin-2-yl) piperidine-2,6-dione], the results for the DC50 on IKZF2 [1], on IKZF2 [2] and on IKZF1 were 1 to 10 nM, 1 to 10 nM and 10 to 100 nM, respectively. Besides, the figures for the Dmax on IKZF2 [1], at IKZF2 [2] and on IKZF1 were above 80%, above 80% and 40 to 60%, respectively.
For the compound `CC(C)Nc1n[nH]c2c(CN3CCCC3)cc(-c3ccc4c(c3)C(C)N(C3CCC(=O)NC3=O)C4=O)nc12` (stereo not drawn) [Example 293, 3-(5-(3-(isopropylamino)-7-(pyrrolidin-1-ylmethyl)-1H-pyrazolo[4,3-b]pyridin-5-yl)-3-methyl-1-oxoisoindolin-2-vl) piperidine-2,6-dione], the DC50 on IKZF2 [1] is 1 to 10 nM; on IKZF2 [2], 1 to 10 nM; on IKZF1, above 10000 nM. Also, the Dmax at IKZF2 [1] is above 80%; at IKZF2 [2] it was above 80%; at IKZF1, below 20%.
Consider `Nc1[nH]nc2c(CN3CCCC3)cc(-c3ccc4c(c3F)CN(C3CCC(=O)NC3=O)C4=O)nc12` (stereo not drawn) [Example 318, 3-(5-(3-amino-7-(pyrrolidin-1-ylmethyl)-2H-pyrazolo[4,3-b]pyridin-5-yl)-4-fluoro-1-oxoisoindolin-2-yl) piperidine-2,6-dione], for which the DC50 on IKZF2 [1] lay in the range of 1 to 10 nM; on IKZF2 [2], 1 to 10 nM; on IKZF1, 10 to 100 nM. In addition, the Dmax on IKZF2 [1] is above 80%; at IKZF2 [2], above 80%; at IKZF1, 60 to 80%.

Source of the values: patent publication US20250214991A1 (Oncopia Therapeutics, Inc. d/b/a/ SK Life Science Labs, priority 2022, published 2025).
